Measured values published in PMC2263054, “Functional evolution of the vitamin D and pregnane X receptors” (BMC Evolutionary Biology, 2007).
Where two headings read alike, the source gives them in different places.

Columns and labels:
Sea lamprey VDR = target: T1, Sea lamprey VDR (Petromyzon marinus, UniProt Q7ZZY9); assay type: cell-based; settings: for Effect on sea lamprey VDR: screening for activators, at least three concentrations of each drug; for EC50: read-out: Sea lamprey VDR EC50 ± SD
T1 sequence (Q7ZZY9 92-406): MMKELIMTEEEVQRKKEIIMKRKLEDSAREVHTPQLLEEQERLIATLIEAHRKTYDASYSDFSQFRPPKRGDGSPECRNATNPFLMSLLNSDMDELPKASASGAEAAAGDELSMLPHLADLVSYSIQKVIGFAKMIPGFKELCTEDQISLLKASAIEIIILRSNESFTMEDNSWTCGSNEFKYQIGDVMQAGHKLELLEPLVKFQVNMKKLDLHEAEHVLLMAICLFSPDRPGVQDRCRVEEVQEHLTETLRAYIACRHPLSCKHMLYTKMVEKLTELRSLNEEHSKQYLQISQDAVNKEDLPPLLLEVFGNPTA

Mouse VDR = target: T2, Mouse VDR (Mus musculus, UniProt P48281); assay: luciferase reporter transactivation assay in HepG2-NTCP cells, full-length mVDR with CYP3A4-PXRE-Luc
T2 sequence (P48281 1-422): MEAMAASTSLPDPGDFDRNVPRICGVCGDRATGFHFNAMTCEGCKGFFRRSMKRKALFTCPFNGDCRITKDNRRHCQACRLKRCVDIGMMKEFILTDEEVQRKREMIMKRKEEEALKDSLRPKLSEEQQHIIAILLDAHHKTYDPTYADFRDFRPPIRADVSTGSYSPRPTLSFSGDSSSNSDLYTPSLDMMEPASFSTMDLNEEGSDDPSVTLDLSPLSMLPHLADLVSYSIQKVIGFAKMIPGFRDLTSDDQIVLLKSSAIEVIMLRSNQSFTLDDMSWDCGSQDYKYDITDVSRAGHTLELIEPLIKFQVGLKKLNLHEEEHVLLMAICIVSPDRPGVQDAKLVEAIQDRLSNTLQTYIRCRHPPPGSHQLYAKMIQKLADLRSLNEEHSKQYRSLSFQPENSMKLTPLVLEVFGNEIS

Human VDR = target: T3, Human VDR (Homo sapiens, UniProt P11473); assay: luciferase reporter transactivation assay in HepG2-NTCP cells, full-length hVDR with CYP3A4-PXRE-Luc
T3 sequence (P11473 1-427): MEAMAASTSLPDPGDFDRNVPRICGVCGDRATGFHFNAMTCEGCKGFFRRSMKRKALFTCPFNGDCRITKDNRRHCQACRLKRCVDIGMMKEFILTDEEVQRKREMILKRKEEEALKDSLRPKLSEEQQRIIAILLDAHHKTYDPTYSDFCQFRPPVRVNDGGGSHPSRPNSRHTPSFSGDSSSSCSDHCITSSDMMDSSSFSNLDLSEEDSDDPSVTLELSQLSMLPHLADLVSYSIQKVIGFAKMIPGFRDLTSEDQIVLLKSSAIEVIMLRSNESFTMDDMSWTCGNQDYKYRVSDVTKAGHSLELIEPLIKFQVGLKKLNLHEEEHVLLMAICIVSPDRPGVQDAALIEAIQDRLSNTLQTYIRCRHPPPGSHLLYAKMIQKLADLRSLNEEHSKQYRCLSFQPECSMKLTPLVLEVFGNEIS

Zebrafish VDR = target: T4, Zebrafish VDR (Danio rerio, UniProt Q9PTN2); assay: luciferase reporter transactivation assay in HepG2-NTCP cells, GAL4/zfVDR LBD chimera with tk-UAS-Luc; assay type: cell-based; settings: for Zebrafish VDR EC50 ± SD / EC50: HepG2-NTCP cells, luciferase reporter; for Zebrafish VDR EC50 ± SD: unit not given, also cells saying No effect; for Effect on zebrafish VDR: screening for activators, at least three concentrations of each drug; for EC50: read-out: Zebrafish VDR EC50 ± SD; for Zebrafish VDR relative efficacy: relative to maximal reference compound (1 μM calcitriol, efficacy = 1.0)
T4 sequence (Q9PTN2 121-453): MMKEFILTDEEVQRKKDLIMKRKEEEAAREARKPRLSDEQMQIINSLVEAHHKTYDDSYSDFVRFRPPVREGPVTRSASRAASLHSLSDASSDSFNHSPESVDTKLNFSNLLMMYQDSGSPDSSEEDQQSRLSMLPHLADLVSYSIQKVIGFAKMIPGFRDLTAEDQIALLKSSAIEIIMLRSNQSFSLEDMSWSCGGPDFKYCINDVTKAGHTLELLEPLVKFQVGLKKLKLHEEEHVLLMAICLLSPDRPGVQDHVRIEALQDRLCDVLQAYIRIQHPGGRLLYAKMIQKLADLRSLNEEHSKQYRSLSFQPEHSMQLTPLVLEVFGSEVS

Xenopus laevis VDR = target: T5, Xenopus laevis VDR (Xenopus laevis, UniProt O13124); assay: luciferase reporter transactivation assay in HepG2-NTCP cells, GAL4/xlVDR LBD chimera with tk-UAS-Luc; assay type: cell-based; settings: for Xenopus VDR EC50 ± SD / EC50: HepG2-NTCP cells, luciferase reporter; for Xenopus VDR EC50 ± SD: unit not given, also cells saying No effect; for Effect on Xenopus laevis VDR: screening for activators, at least three concentrations of each drug; for EC50: read-out: Xenopus VDR EC50 ± SD; for Xenopus VDR relative efficacy: relative to maximal reference compound (1 μM calcitriol, efficacy = 1.0)
T5 sequence (O13124 90-422): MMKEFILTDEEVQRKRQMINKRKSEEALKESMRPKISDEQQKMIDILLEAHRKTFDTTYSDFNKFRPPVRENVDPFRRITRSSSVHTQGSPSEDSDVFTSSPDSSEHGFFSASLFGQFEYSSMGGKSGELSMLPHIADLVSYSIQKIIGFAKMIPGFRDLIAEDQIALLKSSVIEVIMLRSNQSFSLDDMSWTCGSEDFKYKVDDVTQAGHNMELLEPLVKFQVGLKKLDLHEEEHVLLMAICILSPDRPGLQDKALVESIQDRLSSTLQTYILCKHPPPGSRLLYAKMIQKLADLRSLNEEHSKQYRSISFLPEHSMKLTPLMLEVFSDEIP

[1] = tested on: ethoxyresorufin O-deethylase (EROD) activity (CYP1A-like activity); assay: EROD assay in zebrafish primary hepatocytes; settings: zebrafish primary hepatocytes; DIM at concentrations of 2 μM and greater
Protocol: The cells are cultured at 26°C in ambient atmosphere.

EROD activity = assay: EROD assay in sea lamprey primary hepatocytes; settings: 24–48 hr exposure
[2] = tested on: testosterone 6β-hydroxylation; assay: testosterone hydroxylation (HPLC) in sea lamprey primary hepatocytes; assay type: cell-based; settings: concentration ranges per compound
Protocol: 100 μL of sample, calibration standard, or quality material standard were pipetted into separate microcentrifuge tubes and mixed with 100 μL of methanol. Samples were vortexed and centrifuged at 13,000 rpm for 4 min. The supernatant was then injected into the HPLC.
The flow rate was 1.2 mL/min and total run time was 25 min.

[3] = HepG2-NTCP cells, luciferase reporter, unit not given, also cells saying No effect
[4] = HepG2-NTCP cells, luciferase reporter
[5] = relative to maximal reference compound (0.5 μM calcitriol, efficacy = 1.0)
[6] = read-out: Mouse VDR EC50 ± SD, HepG2-NTCP cells, luciferase reporter
[7] = relative to maximal reference compound (1 μM calcitriol, efficacy = 1.0)

Q: How did the “Sea lamprey VDR EC50 ± SD” value (Sea lamprey VDR) turn out when `C[C@H](CCC(=O)O)[C@H]1CC[C@H]2[C@@H]3CC[C@@H]4C[C@H](OS(=O)(=O)O)CC[C@]4(C)[C@H]3CC[C@]12C` [Lithocholic acid 3-sulfate] was run?
A: No effect

Q: What about the “Ciona VDR/PXR EC50 ± SD” value (Ciona VDR/PXR; [3]) of the same compound?
A: No effect

Q: And the “Mouse VDR EC50 ± SD” value (Mouse VDR; [3])?
A: No effect

Q: And the “Human VDR EC50 ± SD” value (Human VDR; [3])?
A: No effect

Q: What about the “Zebrafish VDR EC50 ± SD” value (Zebrafish VDR) of the same compound?
A: No effect

Q: What about the “Xenopus VDR EC50 ± SD” value (Xenopus laevis VDR) of the same compound?
A: No effect

Q: For `C[C@H](CCC(=O)O)[C@H]1CC[C@H]2[C@@H]3CC[C@@H]4CC(=O)CC[C@]4(C)[C@H]3CC[C@]12C` [3-Ketolithocholic acid], which “Sea lamprey VDR EC50 ± SD” value (Sea lamprey VDR; [3]) is on record?
A: No effect

Q: What about the “Effect on sea lamprey VDR” value (Sea lamprey VDR) of the same compound?
A: No effect

Q: What about the “Ciona VDR/PXR EC50 ± SD” value (Ciona VDR/PXR) of the same compound?
A: No effect

Q: What about the “Mouse VDR EC50 ± SD” value (Mouse VDR) of the same compound?
A: 20 ± 0.3 (0.58)

Q: What about the “Human VDR EC50 ± SD” value (Human VDR) of the same compound?
A: 55 ± 8.1 (0.17)

Q: And the “Zebrafish VDR EC50 ± SD” value (Zebrafish VDR)?
A: No effect

Q: And the “Effect on zebrafish VDR” value (Zebrafish VDR)?
A: No effect

Q: And the “Xenopus VDR EC50 ± SD” value (Xenopus laevis VDR)?
A: No effect

Q: And the “Effect on Xenopus laevis VDR” value (Xenopus laevis VDR)?
A: No effect

Q: Which results are given for `C=C1CC[C@H](O)C/C1=C/C=C1\CCC[C@]2(C)[C@@H]([C@H](C)CC[C@@H](O)C(C)(C)O)CC[C@@H]12` [24(R),25-(OH)2-Vitamin D3]?
A: EC50 (Sea lamprey VDR; [4]): 5600 ± 800 nM; Sea lamprey VDR relative efficacy (Sea lamprey VDR; [5]): 0.9; Ciona VDR/PXR EC50 ± SD (Ciona VDR/PXR; [3]): No effect; EC50 (Mouse VDR; [6]): 300 ± 20 nM; Mouse VDR relative efficacy (Mouse VDR; [5]): 1.7; EC50 (Human VDR; read-out: Human VDR EC50 ± SD, HepG2-NTCP cells, luciferase reporter): 300 ± 20 nM; Human VDR relative efficacy (Human VDR; [7]): 0.9; EC50 (Zebrafish VDR): 700 ± 60 nM; Zebrafish VDR relative efficacy (Zebrafish VDR): 0.6; EC50 (Xenopus laevis VDR): 11000 ± 1700 nM; Xenopus VDR relative efficacy (Xenopus laevis VDR): 0.20

Q: Which results are given for `c1ccc2c(Cc3c[nH]c4ccccc34)c[nH]c2c1` [3,3'-diindoylmethane]?
A: effect on EROD activity [1]: caused a decrease in EROD activity; Effect on sea lamprey VDR (Sea lamprey VDR): No effect; Effect on zebrafish VDR (Zebrafish VDR): No effect; Effect on Xenopus laevis VDR (Xenopus laevis VDR): No effect

Q: What does the source list for `O=Cc1c2[nH]c3ccccc3c2cc2[nH]c3ccccc3c12` [6-Formylindolo-[3,2-b]-carbazole]?
A: Sea lamprey VDR relative efficacy (Sea lamprey VDR): 0.25; Ciona VDR/PXR relative efficacy (Ciona VDR/PXR; relative to maximal reference compound (20 μM 6-formylindolo-[3,2-b]-carbazole, efficacy = 1.0)): 1.0; activation of ciVDR/PXR (Ciona VDR/PXR; unpublished data of the authors): activated; Mouse VDR relative efficacy (Mouse VDR; [5]): ~0.08; Human VDR relative efficacy (Human VDR; [7]): ~0.12; Zebrafish VDR relative efficacy (Zebrafish VDR): < 0.03; Xenopus VDR relative efficacy (Xenopus laevis VDR): ~0.10

Q: With `C=C1/C(=C\C=C2/CCC[C@]3(C)[C@@H]([C@H](C)CCCC(C)C)CC[C@@H]23)C[C@@H](O)C[C@@H]1O` [1α-Hydroxyvitamin D3] as the compound, how does the EC50 (Mouse VDR) read?
A: 0.3 ± 0.04 nM

Q: What about the EC50 (Human VDR) of the same compound?
A: 4.3 ± 0.5 nM

Q: And the EC50 (Zebrafish VDR)?
A: 18 ± 1.4 nM

Q: What about the EC50 (Xenopus laevis VDR) of the same compound?
A: 157 ± 10 nM

Q: Which results are given for `CC(CCCOS(=O)(=O)O)[C@H]1CCC2C3C(C[C@H](O)[C@@]21C)[C@@]1(C)CC[C@@H](O)C[C@@H]1C[C@H]3O` (stereo partly drawn) [5α-Petromyzonol 24-sulfate]?
A: Sea lamprey VDR EC50 ± SD (Sea lamprey VDR; [3]): No effect; effect on EROD activity (EROD activity): did not alter EROD activity; effect on testosterone 6β-hydroxylation [2]: None of these compounds produced significant increases in testosterone 6β-hydroxylation; Ciona VDR/PXR EC50 ± SD (Ciona VDR/PXR; [3]): No effect; Mouse VDR EC50 ± SD (Mouse VDR; [3]): No effect; Human VDR EC50 ± SD (Human VDR; [3]): No effect; Zebrafish VDR EC50 ± SD (Zebrafish VDR): No effect; Xenopus VDR EC50 ± SD (Xenopus laevis VDR): No effect

Q: Which results are given for `C=C1CC[C@H](O)C/C1=C/C=C1\CCC[C@]2(C)[C@@H]([C@H](C)CCCC(C)(C)O)CC[C@@H]12` [25-Hydroxyvitamin D3]?
A: Sea lamprey VDR relative efficacy (Sea lamprey VDR): 0.63; EC50 (Sea lamprey VDR; [4]): 19000 ± 2100 nM; effect on testosterone 6β-hydroxylation [2]: None of these compounds produced significant increases in testosterone 6β-hydroxylation; Ciona VDR/PXR EC50 ± SD (Ciona VDR/PXR; [3]): No effect; Mouse VDR relative efficacy (Mouse VDR): 2.62; EC50 (Mouse VDR; [6]): 600 ± 100 nM; Human VDR relative efficacy (Human VDR): 1.22; EC50 (Human VDR; read-out: Human VDR EC50 ± SD, HepG2-NTCP cells, luciferase reporter, unit M): 1500 ± 200 nM; EC50 (Zebrafish VDR): 7300 ± 800 nM; Zebrafish VDR relative efficacy (Zebrafish VDR): 0.91; EC50 (Xenopus laevis VDR): 11000 ± 800 nM; Xenopus VDR relative efficacy (Xenopus laevis VDR): 0.67
